Test in all cases: ≥ marks a high value that may be exact or a test limit, other limits are often not marked, values filed in µg/mL are converted to µM
The test system of assay [1] is Bacillus subtilis KCTC 1998.
In assay [2] the test system is Candida albicans KCTC 7270.
Assay [3] relates to Escherichia coli ATCC 25922.
Assay [4] relates to Escherichia coli CCARM 1229.
In assay [5] the test system is Escherichia coli CCARM 1238.
Assay [6] concerns Listeria monocytogenes KCTC 3710.
Assay [7] concerns Pseudomonas aeruginosa 4007.
The test system of assay [8] is Pseudomonas aeruginosa 4891.
Assay [9] deals with Pseudomonas aeruginosa ATCC 27853.
The subject of assay [10] is Salmonella typhimurium KCTC 1926.
The subject of assay [11] is Staphylococcus aureus ATCC 25923.
Assay [12] has as its system Staphylococcus aureus CCARM 3090.
For assay [13], the system named is Staphylococcus aureus CCARM 3518.
In assay [14] the test system is Trichosporon beigelii KCTC 7707.
Assay [15] relates to Staphylococcus aureus LAC.
Assay [16] relates to Staphylococcus aureus 3968.
Assay [17] concerns Staphylococcus aureus 5118.
For assay [18], the system named is Staphylococcus aureus ATCC 9144.
Assay [19] has as its system Staphylococcus aureus E4049.

One may read the MIC as the lowest concentration that inhibits growth of the organism. Read a high MIC as a need for much substance.

≈ marks a conversion by molar mass, not a printed value. Bounds are passed on as bounds.

Take `CC[C@H](C)[C@H](NC(=O)[C@H](CCCCN)NC(=O)[C@H](CCCCN)NC(=O)[C@@H](NC(=O)[C@H](C)NC(=O)[C@H](CCC(=O)O)NC(=O)[C@H](Cc1cnc[nH]1)NC(=O)[C@@H](NC(=O)CNC(=O)[C@H](CCC(N)=O)NC(=O)[C@H](Cc1ccccc1)NC(=O)[C@@H](NC(=O)[C@H](CCCCN)NC(=O)[C@H](CCCCN)NC(=O)[C@H](CC(C)C)NC(=O)[C@H](C)NC(=O)[C@H](CC(N)=O)NC(=O)[C@@H](N)CC(C)C)C(C)C)[C@@H](C)CC)[C@@H](C)CC)C(N)=O` [LNALKKVFQGIHEAIKKI]: the MIC in assay [1] amounted to 4 µM (≈ 8.2 µg/mL); in [2], 16 µM (≈ 32.8 µg/mL); in [3], 2 µM (≈ 4.1 µg/mL); in assay [4], 2 µM (≈ 4.1 µg/mL); in assay [5], 2 µM (≈ 4.1 µg/mL); in assay [6], 8 µM (≈ 16.4 µg/mL). For the same molecule, the MIC in [7] was 4 µM (≈ 8.2 µg/mL); in assay [8], 8 µM (≈ 16.4 µg/mL); in assay [9] it was 4 µM (≈ 8.2 µg/mL); in assay [10], 4 µM (≈ 8.2 µg/mL); in assay [11], 4 µM (≈ 8.2 µg/mL); in assay [12], 4 µM (≈ 8.2 µg/mL). For the same molecule, the values for the MIC in assay [13] and in [14] were 4 µM (≈ 8.2 µg/mL) and 16 µM (≈ 32.8 µg/mL), respectively.

With `NC(N)=NCCC[C@H](NC(=O)[C@H](CCCN=C(N)N)NC(=O)[C@H](CCCN=C(N)N)NC(=O)[C@@H](N)CCCN=C(N)N)C(=O)N[C@@H](Cc1c[nH]c2ccccc12)C(=O)N[C@@H](Cc1c[nH]c2ccccc12)C(=O)N[C@@H](Cc1c[nH]c2ccccc12)C(=O)N[C@@H](Cc1c[nH]c2ccccc12)C(=O)N[C@@H](Cc1c[nH]c2ccccc12)C(=O)O` [RRRRWWWWW], the values for the MIC in assay [3] and in [15] were 20.3 µM (≈ 32 µg/mL) and 10.2 µM (≈ 16 µg/mL), respectively.

Turning to `CSCC[C@H](NC(=O)[C@H](C)NC(=O)[C@H](CC(C)C)NC(=O)[C@@H](N)CCCCN)C(=O)N[C@@H](CO)C(=O)N[C@@H](CCSC)C(=O)N[C@@H](CO)C(=O)N[C@@H](Cc1ccccc1)C(=O)N[C@@H](CC(N)=O)C(=O)N[C@@H](Cc1ccccc1)C(=O)N[C@H](C(=O)N[C@@H](Cc1ccccc1)C(=O)N[C@@H](Cc1ccc(O)cc1)C(=O)N[C@@H](Cc1ccccc1)C(=O)N[C@@H](CCSC)C(=O)N[C@H](C(=O)N[C@@H](CC(N)=O)C(=O)N[C@@H](Cc1ccccc1)C(=O)N[C@@H](CC(=O)O)C(=O)N[C@@H](CC(=O)O)C(=O)O)C(C)C)C(C)C` [KLAMSMSFNFVFYFMVNFDD], the MIC in assay [16] is at least 250 µM; in assay [17] it was at least 125 µM; in [18], at least 125 µM; in assay [19], 15.5 µM (≈ 38 µg/mL).

Source of the values: DBAASP.
